Literature values in paper PMC12802961 (Journal of Antimicrobial Chemotherapy, 2025).
Read-outs that look alike come from different tables or passages of the source.

Conditions: cited from earlier work

Row | Structure (SMILES) | Ct (threshold concentration) (ceftazidime/avibactam) | Ct (threshold concentration) (ceftolozane/tazobactam)
1 | NC(=O)[C@@H]1CC[C@@H]2CN1C(=O)N2OS(=O)(=O)O [avibactam] | 1 mg/L | 
2 | C[C@]1(Cn2ccnn2)[C@H](C(=O)O)N2C(=O)C[C@H]2S1(=O)=O [tazobactam] |  | 0.5 mg/L
